Holding throughout (assay type): in vivo
Assay [1] relates to Pyricularia oryzae. As to conditions: systemic; 40 ml preparation poured on soil of young rice plants; inoculated 7 days after treatment; evaluated 4 days after inoculation; compared with prior art (Zinkethylen-1,2-bis-dithiocarbamat).
Assay [2] relates to Pyricularia oryzae. As to conditions: protective; young rice plants sprayed to dripping wet, then inoculated; evaluated 4 days after inoculation; compared with prior art (Zinkethylen-1,2-bis-dithiocarbamat).
The test system of another assay is Phytophthora infestans. As to conditions: curative; young tomato plants inoculated, sprayed after 7 hours incubation; evaluated 3 days after inoculation; compared with prior art (Zinkethylen-1,2-bis-dithiocarbamat).

Read-outs that look alike come from different tables or passages of the source.

As to `C#CC(C)(C)C(C(=O)OC)C(=O)OC` [Beispiel 1, 3,3-Dimethyl-2-methoxycarbcnyL-pent-4-insäuremethylester], the “Wirksamkeit (Krankheitsbefall)” value with Pyricularia oryzae [1] is given as “deutliche Überlegenheit in der Wirksamkeit gegenüber dem Stand der Technik”.

Regarding `C#CC(C)(C)C(C(=O)OCC)C(=O)OCC` [Beispiel 20, 3,3-Dimethyl-2-ethoxycarbonyl-pent-4-insäureethylester], the “Wirksamkeit (Krankheitsbefall)” value with Pyricularia oryzae [1] is on record as “deutliche Überlegenheit in der Wirksamkeit gegenüber dem Stand der Technik”.

With `CCOC(=O)CC(C)(C)C#CC(=O)OCCI` [Beispiel 4, 3,3-DimethyL-5-iodethoxycarbonyl-pent-4-insäureethylester], the “Wirksamkeit (Krankheitsbefall)” value in the assay on Pyricularia oryzae [1] and in the assay with Pyricularia oryzae [2] was “deutliche Überlegenheit in der Wirksamkeit gegenüber dem Stand der Technik” in each case.

With `C#CC(C)(C)C(C(N)=O)C(=O)OCC` (centres unmarked) [Beispiel 3, 3,3-Dimethyl-2-etrcry-carbonyl-pent-4-insaureamid], in the assay with Pyricularia oryzae [2], the “Wirksamkeit (Krankheitsbefall)” value is listed as “deutliche Überlegenheit in der Wirksamkeit gegenüber dem Stand der Technik”. Moreover, the Wirksamkeit entry in the assay on Phytophthora infestans is listed as “deutliche Überlegenheit in der Wirksamkeit gegenüber dem Stand der Technik”.

In the case of `C#CC(C)(C)C(C(=O)O)C(=O)OCC` (centres unmarked) [Beispiel 2, 3,3-Dimethyl-2-ethoxycarbonyl-pent-4-insäure], the “Wirksamkeit (Krankheitsbefall)” value in the assay on Pyricularia oryzae [1] and with Pyricularia oryzae [2] was “deutliche Überlegenheit in der Wirksamkeit gegenüber dem Stand der Technik” in each case.

For the origin of these results see patent EP0140270A2 (priority 1983, dated 1985).
